Laboratory results as given in the NIST ThermoML archive (doi:10.1016/j.jct.2012.02.036).
Numbers after ± are expanded uncertainties.

Test: xn = mol fraction of the nth substance listed
Conditions: 101 kPa, Liquid; for mass density: Vibrating tube method

NCCCO [3-amino-1-propanol] + CC(C)CO
Conditions | mass density, 293.15 K [kg/m3] | mass density, 303.15 K [kg/m3] | mass density, 313.15 K [kg/m3] | mass density, 323.15 K [kg/m3] | mass density, 333.15 K [kg/m3] | viscosity, 293.15 K [mPa·s] | viscosity, 303.15 K [mPa·s] | viscosity, 313.15 K [mPa·s] | viscosity, 323.15 K [mPa·s] | viscosity, 333.15 K [mPa·s]
x1 = 0.1037 | 819.8 ± 0.3 | 811.99 ± 0.3 | 804.06 ± 0.3 | 795.93 ± 0.3 | 787.58 ± 0.3 | 5.051 ± 0.27 | 3.521 ± 0.2 | 2.443 ± 0.14 | 1.637 ± 0.096 | 1.025 ± 0.063
x1 = 0.2007 | 837.1 ± 0.3 | 829.27 ± 0.3 | 821.32 ± 0.3 | 813.22 ± 0.3 | 804.93 ± 0.3 | 6.346 ± 0.32 | 4.093 ± 0.23 | 3.059 ± 0.17 | 2.113 ± 0.12 | 1.408 ± 0.084
x1 = 0.3006 | 854.9 ± 0.3 | 847.02 ± 0.3 | 839.04 ± 0.3 | 830.95 ± 0.3 | 822.7 ± 0.31 | 8.282 ± 0.4 | 5.473 ± 0.29 | 3.688 ± 0.2 | 2.534 ± 0.14 | 1.699 ± 0.099
x1 = 0.4002 | 873.2 ± 0.3 | 865.25 ± 0.31 | 857.25 ± 0.31 | 849.16 ± 0.31 | 840.94 ± 0.31 | 10.89 ± 0.5 | 6.995 ± 0.35 | 4.658 ± 0.25 | 3.177 ± 0.18 | 2.155 ± 0.12
x1 = 0.501 | 891.9 ± 0.3 | 883.89 ± 0.31 | 875.86 ± 0.31 | 867.78 ± 0.31 | 859.58 ± 0.31 | 13.95 ± 0.62 | 8.794 ± 0.42 | 5.767 ± 0.3 | 3.903 ± 0.21 | 2.693 ± 0.15
x1 = 0.6007 | 910.4 ± 0.3 | 902.41 ± 0.32 | 894.47 ± 0.32 | 886.34 ± 0.32 | 878.16 ± 0.32 | 17.71 ± 0.77 | 10.85 ± 0.5 | 7.048 ± 0.35 | 4.73 ± 0.26 | 3.251 ± 0.18
x1 = 0.7008 | 929.5 ± 0.3 | 921.49 ± 0.32 | 913.45 ± 0.32 | 905.35 ± 0.32 | 897.17 ± 0.32 | 21.85 ± 0.93 | 13.33 ± 0.6 | 8.496 ± 0.41 | 5.666 ± 0.3 | 3.88 ± 0.21
x1 = 0.8005 | 948.6 ± 0.3 | 940.49 ± 0.33 | 932.36 ± 0.33 | 924.27 ± 0.33 | 916.24 ± 0.33 | 27.18 ± 1.1 | 16.12 ± 0.71 | 10.09 ± 0.47 | 6.695 ± 0.34 | 4.573 ± 0.25
x1 = 0.9005 | – | 960.24 ± 0.34 | 952.19 ± 0.34 | 944.09 ± 0.34 | 935.93 ± 0.34 | 33.2 ± 1.4 | 19.47 ± 0.84 | 12.19 ± 0.55 | 8.029 ± 0.39 | 5.424 ± 0.29
x1 = 1 | 987.55 ± 0.29 | 979.53 ± 0.29 | 971.47 ± 0.29 | 963.37 ± 0.29 | 955.22 ± 0.29 | 40.45 ± 1.7 | 23.98 ± 1 | 15.31 ± 0.68 | 10.22 ± 0.48 | 6.961 ± 0.35
